ChEMBL document CHEMBL1177733, “Mayamycin, a cytotoxic polyketide from a Streptomyces strain isolated from the marine sponge Halichondria panicea” (J Nat Prod, 2010)
pIC50: −log10 of the molar value.

Assays:
Staphylococcus aureus = assay: Antibacterial activity against Staphylococcus aureus ATCC 12600 after 48 hrs by microtiter plate assay; type: functional, organism-based; settings: ATCC 12600, 48 h
[1] = Cytotoxicity against human GXF251L cells after 24 hrs by propidium iodide monolayer assay; settings: GXF 251L
[2] = Cytotoxicity against human MAXF 401NL cells after 24 hrs by propidium iodide monolayer assay
[3] = Cytotoxicity against human LXFL529 cells after 24 hrs by propidium iodide monolayer assay; settings: LXFL 529, 24 h
[4] = Cytotoxicity against human PAXF 1657L cells by modified propidium iodide monolayer assay
[5] = Cytotoxicity against human RXF 486L cells by modified propidium iodide monolayer assay
[6] = Cytotoxicity against human MEXF 462NL cells by modified propidium iodide monolayer assay
Dermabacter hominis = assay: Antibacterial activity against Dermabacter hominis DSM 7083 after 24 hrs by microtiter plate assay; settings: DSM 7083, 24 h
[7] = tested on: Brevibacterium epidermidis; assay: Antibacterial activity against Brevibacterium epidermidis DSM 20660 after 14-16 hrs by microtiter plate assay; settings: DSM 20660, 14-16 h
Bacillus subtilis = assay: Antibacterial activity against Bacillus subtilis DSM 347 after 14-16 hrs by microtiter plate assay; settings: DSM 347, 14-16 h
Xanthomonas campestris = assay: Antibacterial activity against Xanthomonas campestris DSM 2405 after 14-16 hrs by microtiter plate assay; settings: DSM 2405, 14-16 h
Mammaliicoccus lentus = assay: Antibacterial activity against Staphylococcus lentus DSM 6672 after 14-16 hrs by microtiter plate assay; settings: DSM 6672, 14-16 h
Cutibacterium acnes = assay: Antibacterial activity against Propionibacterium acnes DSM 1897 after 48 hrs by microtiter plate assay; type: functional, organism-based; settings: DSM 1897, 48 h
Pseudomonas aeruginosa = assay: Antibacterial activity against Pseudomonas aeruginosa DSM 50071 after 14-16 hrs by microtiter plate assay; settings: DSM 50071, 14-16 h
HT-29 = assay: Cytotoxicity against human HT-29 cells after 24 hrs by CellTiter-BlueCell viability assay; type: functional, cell-based; settings: HT-29, 24 h

COc1c(N2C[C@@H]3CCCN[C@@H]3C2)c(F)cc2c(=O)c(C(=O)O)cn(C3CC3)c12 [MOXIFLOXACIN]
pIC50 (Staphylococcus aureus): 5.12

COc1cccc2c1C(=O)c1c(O)c3c(c(O)c1C2=O)C[C@@](O)(C(=O)CO)C[C@@H]3O[C@H]1C[C@H](N)[C@H](O)[C@H](C)O1 [DOXORUBICIN]
pIC50 [1]: > 7.28 | pIC50 [2]: > 7.28 | pIC50 [3]: > 7.28 | pIC50 [4]: > 7.28 | pIC50 [5]: ≥ 7.28 | pIC50 [6]: > 7.28

CN(C)[C@@H]1C(O)=C(C(N)=O)C(=O)[C@@]2(O)C(O)=C3C(=O)c4c(O)cccc4[C@@](C)(O)[C@H]3C[C@@H]12 [TETRACYCLINE]
pIC50 (Dermabacter hominis): 5.92 | pIC50 [7]: 4.86

O=C(N[C@H](CO)[C@H](O)c1ccc([N+](=O)[O-])cc1)C(Cl)Cl [CHLORAMPHENICOL]
pIC50 (Bacillus subtilis): 5.05 | pIC50 (Xanthomonas campestris): 5.44 | pIC50 (Mammaliicoccus lentus): 5.64 | pIC50 (Cutibacterium acnes): 6.00 | pIC50 (Pseudomonas aeruginosa): 4.56

CC/C(=C(\c1ccccc1)c1ccc(OCCN(C)C)cc1)c1ccccc1 [TAMOXIFEN]
pIC50 (HT-29): 4.41
